Where two headings read alike, the source gives them in different places.
Key:
[1] = 1.0 mg/kg i.v.; ref Dhawan et al. 2006; Petitet et al. 1999; cited from earlier work
[2] = ref Giblin et al. 2007; cited from earlier work
[3] = rodents, doses of 0.1–100 mg/kg; ref Valenzano et al. 2005; cited from earlier work
[4] = ref Beltramo 2009, cited from earlier work
CB2 [5] = target: T1, CB2 (Homo sapiens, UniProt P34972); assay: Preliminary experiments: CB2 agonist potency of metabolite; details: data not shown
[6] = Plasma pharmacokinetics in mice after i.v. or p.o. AM-1241*HCl; format: in vivo, mouse
[7] = Tissue distribution of AM-1241 in mice after i.v. or p.o. administration; format: in vivo, mouse; details: 25 mg/kg; for time by which concentration became undetectable: i.v.
plasma proteins = assay: Plasma-protein binding in undiluted mouse plasma; format: in vitro ADME; details: up to 50 µM, 30 minute incubation at 37°C, triplicate
human serum albumin = human serum albumin (Homo sapiens, UniProt P02768); assay: Binding to aqueous human serum albumin; format: in vitro ADME; details: 50 µM
[8] = Stability in mouse plasma at 37°C; format: in vitro ADME; details: at least 6 hours, 20 µM
[9] = Solution stability in acetonitrile at 37°C; format: physicochemical; details: at least 24 hours, 20 µM
[10] = Thermal stability of aqueous AM-1241*HCl solutions; format: physicochemical; details: 0.003, 0.03, 0.3 and 1 mg/mL, up to 14 days
[11] = Microsomal metabolism and LC-MS/MS metabolite analysis, rat liver microsomes; format: in vitro ADME; details: 100 µM, 30 minutes, 37°C, NADPH
[12] = Microsomal metabolism and LC-MS/MS metabolite analysis, human liver microsomes; format: in vitro ADME; details: 100 µM, 30 minutes, 37°C, NADPH
mice = assay: Responses of mice to AM-1241 administration; format: in vivo, mouse
CB2 vs. CB1 = details: ref Beltramo 2009; Bingham et al. 2007; Mancini et al. 2009; Nackley et al. 2003; Quartilho et al. 2003; Yao et al. 2006; cited from earlier work
CB2 [13] = target: T1, CB2; details: ref Beltramo 2009; Bingham et al. 2007; Mancini et al. 2009; Nackley et al. 2003; Quartilho et al. 2003; Yao et al. 2006; cited from earlier work
[14] = local (intraplantar) administration; ref Malan et al. 2001; cited from earlier work
[15] = i.p., murine model; ref Storr et al. 2009; cited from earlier work

Chain of human serum albumin (P02768 25-609): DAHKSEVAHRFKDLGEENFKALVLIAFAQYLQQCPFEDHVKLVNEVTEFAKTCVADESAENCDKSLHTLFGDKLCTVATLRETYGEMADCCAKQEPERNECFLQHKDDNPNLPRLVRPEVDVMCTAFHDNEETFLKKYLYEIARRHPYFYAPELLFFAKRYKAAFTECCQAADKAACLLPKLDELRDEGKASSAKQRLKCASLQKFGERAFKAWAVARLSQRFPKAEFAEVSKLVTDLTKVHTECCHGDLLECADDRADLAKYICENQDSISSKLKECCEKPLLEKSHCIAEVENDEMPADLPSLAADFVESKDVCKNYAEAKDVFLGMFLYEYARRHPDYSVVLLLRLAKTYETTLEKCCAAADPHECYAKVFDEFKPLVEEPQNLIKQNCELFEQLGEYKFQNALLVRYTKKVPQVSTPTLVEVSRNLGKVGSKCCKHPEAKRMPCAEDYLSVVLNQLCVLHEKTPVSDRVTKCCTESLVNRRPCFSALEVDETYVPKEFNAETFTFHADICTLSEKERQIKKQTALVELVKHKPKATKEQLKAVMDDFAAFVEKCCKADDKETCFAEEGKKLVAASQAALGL
T1 sequence (P34972 whole entry, species assumed): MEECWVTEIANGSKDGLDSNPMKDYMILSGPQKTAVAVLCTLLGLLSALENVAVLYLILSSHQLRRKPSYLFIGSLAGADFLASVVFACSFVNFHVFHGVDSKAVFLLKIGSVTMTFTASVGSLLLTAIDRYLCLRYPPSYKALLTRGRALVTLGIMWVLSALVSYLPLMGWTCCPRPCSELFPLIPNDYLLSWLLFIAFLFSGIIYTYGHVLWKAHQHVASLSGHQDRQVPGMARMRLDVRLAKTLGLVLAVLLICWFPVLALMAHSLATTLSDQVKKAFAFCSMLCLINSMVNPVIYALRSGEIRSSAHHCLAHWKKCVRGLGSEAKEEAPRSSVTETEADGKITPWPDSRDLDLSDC

CN1CCCCC1Cn1cc(C(=O)c2ccccc2I)c2ccccc21 (stereo not shown) [AM-2233]
catalepsy [1]: profound catalepsy

Cc1c(C(=O)c2cccc3ccccc23)c2cccc3c2n1[C@H](CN1CCOCC1)CO3 [WIN 55,212-2]
catalepsy [1]: profound catalepsy

O=C(NCC1CCOCC1)c1cnc(Nc2ccc(Cl)cc2Cl)nc1C(F)(F)F [GW842166X]
half-life after p.o. administration [2]: 3 to 5 h

COc1ccc2c(c1)c(CCN1CCOCC1)c(C)n2C(=O)c1cccc(Cl)c1Cl [GW405833, reference compound]
oral bioavailability [3]: 0%
dose of maximal effective antihyperalgesic and analgesic activities ([4]; i.p.): 1 to 3 mg/kg

O=C(c1cc([N+](=O)[O-])ccc1I)c1cn(CC2CCCCN2)c2ccccc12 (stereo not shown) [demethylated metabolite of AM-1241]
CB2 agonist potency compared to the parent compound (CB2 [5]): somewhat less potent

CN1CCCCC1Cn1cc(C(=O)c2cc([N+](=O)[O-])ccc2I)c2ccccc21 (racemic) [AM-1241, (R,S)-(2-iodo-5-nitrophenyl)-[1-((1-methyl-piperidin-2-yl)methyl-1H-indol-3-yl]-methanone]
half-life after p.o. relative to i.v. administration ([6]; 25 mg/kg): over 2 fold
plasma half-life ([6]; 25 mg/kg i.v.): 0.617 h
half-life after p.o. administration ([6]; 25 mg/kg p.o.): 1.37 h
oral bioavailability ([6]; 25 mg/kg, plasma AUC ratio p.o./i.v.): ~ 21%
time by which concentration became undetectable ([7]; brain): ≤ 120 min
time by which concentration became undetectable ([7]; intestine): ≤ 240 min
time by which concentration became undetectable ([7]; kidney): ≤ 240 min
time by which concentration became undetectable ([7]; liver): ≤ 90 min
detection in brain or liver ([7]; p.o.): not in brain or liver
time by which concentration became undetectable ([7]; plasma): ≤ 240 min
time by which concentration became undetectable ([7]; spleen): ≤ 240 min
bound to plasma protein (plasma proteins): 99%
bound to albumin (human serum albumin; 0.4% (w/v) aqueous human serum albumin): 56%
bound to albumin (human serum albumin; 1.0% (w/v) aqueous human serum albumin): 85%
recovery after incubation (stability) [8]: > 95%
recovery after incubation (stability) [9]: > 95%
stability of aqueous samples ([10]; 4°C): stable
stability of aqueous samples ([10]; room temperature): stable
site of phase I microsomal metabolism (demethylation and hydroxylation products) [11]: primarily on the piperadine moiety
metabolites formed compared with rat liver microsomes [12]: the same metabolites
toxicity (mice; 25 mg/kg orally or i.v., necropsies unremarkable): not toxic
transient gaping response (animals affected) (mice; 25 mg/kg p.o.): Two out of 29 mice
gross organ or tissue abnormalities at end-point necropsy (mice; any AM-1241 treatment (25 mg/kg i.v. or p.o.)): No gross organ or tissue abnormalities
selectivity for CB2 vs. CB1 (CB2 vs. CB1): up to 340 fold
CB2 affinity (CB2 [13]): low nanomolar
dose at which maximal analgesic efficacy was reached [14]: 3.3 mg/kg
daily dose required to reduce experimental colitis [15]: 20 to 40 mg/kg
doses reported efficacious in various preclinical pain models ([4]; i.v., Beltramo et al. 2006, Ohta et al. 2008): up to 6 mg/kg

CN1CCCCC1Cn1cc(C(=O)c2cc([N+](=O)[O-])ccc2I)c2ccccc21.Cl (stereo not shown) [AM-1241*HCl]
behavior after administration (mice; 25 mg/kg i.v.): initially somewhat hypoactive, but behaved normally by 90 minutes post-dose
behavior after administration (mice; 25 mg/kg p.o.): remained alert and apparently unaffected
transient gaping response (animals affected) (mice; 25 mg/kg p.o.): two of the twenty-nine animals

Source: publication PMC3493696 (Life sciences, 2012)
